How the values were obtained:
[1] = target: DAPK2 (Homo sapiens, UniProt Q9UIK4); experiment: KinaseProfiler Assay
[2] = target: HIPK2 (Homo sapiens, UniProt Q9H2X6); experiment: KinaseProfiler Assay
[3] = target: Fyn (Homo sapiens, UniProt P06241); experiment: KinaseProfiler Assay
[4] = target: MAPKAP-K2 (Homo sapiens, UniProt P49137); experiment: KinaseProfiler Assay
[5] = test system: AMPK; experiment: KinaseProfiler Assay
[6] = target: T1, CHK1 (Homo sapiens, UniProt O14757); experiment: KinaseProfiler Assay
T1 sequence (O14757 1-476): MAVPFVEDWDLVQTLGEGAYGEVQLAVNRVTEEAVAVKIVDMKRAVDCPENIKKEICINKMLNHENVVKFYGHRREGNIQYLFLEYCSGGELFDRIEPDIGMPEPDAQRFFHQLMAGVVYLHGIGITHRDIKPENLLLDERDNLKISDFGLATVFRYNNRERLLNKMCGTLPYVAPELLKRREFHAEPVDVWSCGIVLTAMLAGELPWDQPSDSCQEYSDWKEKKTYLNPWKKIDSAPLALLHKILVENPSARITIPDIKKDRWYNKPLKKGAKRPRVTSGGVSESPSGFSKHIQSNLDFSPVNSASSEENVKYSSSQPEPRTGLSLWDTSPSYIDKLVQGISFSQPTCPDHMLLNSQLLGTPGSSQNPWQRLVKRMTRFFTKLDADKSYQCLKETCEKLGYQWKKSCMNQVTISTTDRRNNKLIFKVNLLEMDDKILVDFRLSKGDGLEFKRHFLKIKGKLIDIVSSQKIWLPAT

[7] = test system: 3T3-L1 adipocytes; experiment: Lipogenesis in 3T3-L1 adipocytes (Oil Red O / BODIPY); type: cell-based, murine; details: relative to solvent and positive controls
Experimental: Prior to experiments, cells were cultured in DMEM containing 10% FBS-HI added 50 units penicillin/ml and 50 μg streptomycin/ml, and maintained in log phase prior to experimental setup. Cells were grown in a 5% CO2 humidified incubator at 37° C. Components of the pre-confluent medium included (1) 10% FBS/DMEM containing 4.5 g glucose/L; (2) 50 U/ml penicillin; and (3) 50 μg/ml streptomycin. Growth medium was made by adding 50 ml of heat inactivated FBS and 5 ml of penicillin/streptomycin to 500 ml DMEM. This medium was stored at 4° C. Before use, the medium was warmed to 37° C. in a water bath.
3T3-T1 cells were seeded at an initial density of 6×10^4 cells/cm^2 in 24-well plates. For two days, the cells were allowed grow to reach confluence. Following confluence, the cells were forced to differentiate into adipocytes by the addition of differentiation medium; this medium consisted of (1) 10% FBS/DMEM (high glucose); (2) 0.5 mM methylisobutylxanthine; (3) 0.5 μM dexamethasone and (4) 10 μg/ml insulin (MDI medium). After three days, the medium was changed to post-differentiation medium consisting of 10 μg/ml insulin in 10% FBS/DMEM.
Whenever fresh media were added, fresh test material was also added.
Oil Red 0 Staining—Triglyceride content of D6/D7-differentiated 3T3-L1 cells was estimated with Oil Red 0 according to the method of Kasturi and Joshi [Kasturi, R. and Joshi, V. C. […] Monolayer cells were washed with PBS (phosphate buffered saline, Mediatech) and fixed with 10% formaldehyde for ten minutes. Fixed cells were stained with an Oil Red 0 working solution of three parts 0.6% Oil Red O/isopropanol stock solution and two parts water for one hour and the excess stain was washed once with water. The resulting stained oil droplets were extracted from the cells with isopropanol and quantified by spectrophotometric analysis at 540 nm (MEL312e BIO-KINETICS READER, Bio-Tek Instruments, Winooski, Vt.).
Briefly, media were removed and cells were washed once with non-sterile PBS. A stock 1000× BODIPY/DMSO solution was made by dissolving 1 mg BODIPY in 1 ml DMSO (1,000 μg BODIPY/ml). […] One-hundred μl of this working solution (1 μg BODIPY) was added to each well of a 96-well microtiter plate. After 15 min on an orbital shaker (DS-500, VWR Scientific Products, South Plainfield, N.J.) at ambient temperature, the cells were washed with 100 μl PBS followed by the addition of 100 μl PBS for reading for spectrofluorometric determination of BODIPY incorporation into the cells.
Nonpolar lipid incorporation was represented relative to the nonpolar lipid accumulation of fully differentiated cells in the solvent controls.

[8] = test system: Rsk1; experiment: KinaseProfiler Assay
[9] = target: PKCα (Homo sapiens, UniProt P17252); experiment: KinaseProfiler Assay
[10] = target: CK1γ3 (Homo sapiens, UniProt Q9Y6M4); experiment: KinaseProfiler Assay
[11] = target: MINK (Homo sapiens, UniProt Q8N4C8); experiment: KinaseProfiler Assay
[12] = target: CK1δ (Homo sapiens, UniProt P48730); experiment: KinaseProfiler Assay
[13] = target: Pim-2 (Homo sapiens, UniProt Q9P1W9); experiment: KinaseProfiler Assay
[14] = target: Syk (Homo sapiens, UniProt P43405); experiment: KinaseProfiler Assay
[15] = target: CK1γ1 (Homo sapiens, UniProt Q9HCP0); experiment: KinaseProfiler Assay
[16] = target: GSK3α (Homo sapiens, UniProt P49840); experiment: KinaseProfiler Assay
[17] = target: CDK9/cyclin T1 (Homo sapiens, UniProt P50750); experiment: KinaseProfiler Assay
[18] = target: cSRC (Homo sapiens, UniProt P12931); experiment: KinaseProfiler Assay
[19] = target: IRAK1 (Homo sapiens, UniProt P51617); experiment: KinaseProfiler Assay
[20] = target: CDK6/cyclinD3 (Homo sapiens, UniProt Q00534); experiment: KinaseProfiler Assay
[21] = target: p70S6K (Homo sapiens, UniProt P23443); experiment: KinaseProfiler Assay
[22] = target: EphA2 (Homo sapiens, UniProt P29317); experiment: KinaseProfiler Assay

CDK9/cyclin T1, sequence (P50750 whole entry): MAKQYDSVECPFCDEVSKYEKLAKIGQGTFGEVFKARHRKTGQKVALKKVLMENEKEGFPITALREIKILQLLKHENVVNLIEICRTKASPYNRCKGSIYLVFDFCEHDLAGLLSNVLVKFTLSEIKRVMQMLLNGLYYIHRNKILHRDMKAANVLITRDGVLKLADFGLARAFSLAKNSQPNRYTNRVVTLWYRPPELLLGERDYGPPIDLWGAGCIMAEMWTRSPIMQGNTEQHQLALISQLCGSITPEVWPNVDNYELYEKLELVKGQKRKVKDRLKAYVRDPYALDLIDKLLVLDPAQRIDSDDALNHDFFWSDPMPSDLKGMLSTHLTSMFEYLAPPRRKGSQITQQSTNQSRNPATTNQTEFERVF
CDK9/cyclin T1, sequence (O60563 whole entry partner): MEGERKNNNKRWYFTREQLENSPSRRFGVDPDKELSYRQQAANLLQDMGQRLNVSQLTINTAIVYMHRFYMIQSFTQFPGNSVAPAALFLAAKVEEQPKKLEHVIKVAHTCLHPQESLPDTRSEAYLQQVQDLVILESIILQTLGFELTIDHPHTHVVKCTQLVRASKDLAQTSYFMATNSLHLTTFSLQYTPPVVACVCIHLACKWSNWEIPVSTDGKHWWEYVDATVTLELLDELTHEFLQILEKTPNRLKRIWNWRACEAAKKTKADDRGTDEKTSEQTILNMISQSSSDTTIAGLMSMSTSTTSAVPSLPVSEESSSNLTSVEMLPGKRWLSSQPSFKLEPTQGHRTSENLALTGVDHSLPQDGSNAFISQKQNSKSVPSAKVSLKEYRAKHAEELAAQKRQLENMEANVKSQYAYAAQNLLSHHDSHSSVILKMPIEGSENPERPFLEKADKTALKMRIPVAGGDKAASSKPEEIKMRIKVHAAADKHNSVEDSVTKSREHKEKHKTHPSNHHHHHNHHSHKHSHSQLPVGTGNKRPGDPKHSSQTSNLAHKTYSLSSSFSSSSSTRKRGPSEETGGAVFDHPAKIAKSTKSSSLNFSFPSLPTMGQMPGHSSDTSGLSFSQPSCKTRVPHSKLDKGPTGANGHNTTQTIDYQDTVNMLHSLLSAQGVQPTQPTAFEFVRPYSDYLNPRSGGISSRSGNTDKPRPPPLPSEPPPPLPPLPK
p70S6K, sequence (P23443 whole entry): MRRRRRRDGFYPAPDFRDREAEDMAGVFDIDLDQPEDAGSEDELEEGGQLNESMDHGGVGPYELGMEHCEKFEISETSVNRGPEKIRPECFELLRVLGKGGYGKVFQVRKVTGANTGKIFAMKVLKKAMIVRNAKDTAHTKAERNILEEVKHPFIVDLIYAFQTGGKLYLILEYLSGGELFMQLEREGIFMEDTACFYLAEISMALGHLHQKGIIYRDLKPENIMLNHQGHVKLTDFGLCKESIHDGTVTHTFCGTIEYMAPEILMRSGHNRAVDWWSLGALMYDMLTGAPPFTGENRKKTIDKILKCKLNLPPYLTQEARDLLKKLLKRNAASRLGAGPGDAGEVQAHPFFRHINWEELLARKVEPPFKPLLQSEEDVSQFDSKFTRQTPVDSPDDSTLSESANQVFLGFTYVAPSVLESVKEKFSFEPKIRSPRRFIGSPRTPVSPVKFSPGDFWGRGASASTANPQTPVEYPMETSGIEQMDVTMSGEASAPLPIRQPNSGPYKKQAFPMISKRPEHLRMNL
Fyn, sequence (P06241 whole entry): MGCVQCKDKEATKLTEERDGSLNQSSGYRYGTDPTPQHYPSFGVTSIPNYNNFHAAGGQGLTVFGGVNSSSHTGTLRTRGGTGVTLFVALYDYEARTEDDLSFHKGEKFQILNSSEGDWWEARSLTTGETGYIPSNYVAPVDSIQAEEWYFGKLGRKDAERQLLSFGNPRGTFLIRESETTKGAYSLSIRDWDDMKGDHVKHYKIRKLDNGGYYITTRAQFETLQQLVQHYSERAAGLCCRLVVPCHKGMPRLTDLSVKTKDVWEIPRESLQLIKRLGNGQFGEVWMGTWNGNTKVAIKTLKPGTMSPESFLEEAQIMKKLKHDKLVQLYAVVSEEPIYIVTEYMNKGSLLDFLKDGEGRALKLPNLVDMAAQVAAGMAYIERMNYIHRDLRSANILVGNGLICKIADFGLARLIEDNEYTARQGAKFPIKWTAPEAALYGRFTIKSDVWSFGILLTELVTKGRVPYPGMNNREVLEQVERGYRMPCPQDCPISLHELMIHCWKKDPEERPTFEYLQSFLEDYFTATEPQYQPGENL
GSK3α, sequence (P49840 whole entry): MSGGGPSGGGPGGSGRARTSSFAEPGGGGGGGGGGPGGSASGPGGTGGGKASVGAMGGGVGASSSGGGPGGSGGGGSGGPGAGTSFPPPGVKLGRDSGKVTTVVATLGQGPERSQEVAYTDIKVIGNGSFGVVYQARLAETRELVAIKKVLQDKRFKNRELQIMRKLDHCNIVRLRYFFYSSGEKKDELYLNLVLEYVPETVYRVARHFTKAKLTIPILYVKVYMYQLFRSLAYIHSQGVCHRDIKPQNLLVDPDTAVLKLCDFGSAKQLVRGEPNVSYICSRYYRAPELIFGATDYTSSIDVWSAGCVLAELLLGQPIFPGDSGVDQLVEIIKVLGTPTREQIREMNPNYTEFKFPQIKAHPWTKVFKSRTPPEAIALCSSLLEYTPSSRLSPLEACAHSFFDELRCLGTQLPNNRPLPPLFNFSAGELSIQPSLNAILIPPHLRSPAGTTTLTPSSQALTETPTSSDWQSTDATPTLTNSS
cSRC, sequence (P12931 whole entry): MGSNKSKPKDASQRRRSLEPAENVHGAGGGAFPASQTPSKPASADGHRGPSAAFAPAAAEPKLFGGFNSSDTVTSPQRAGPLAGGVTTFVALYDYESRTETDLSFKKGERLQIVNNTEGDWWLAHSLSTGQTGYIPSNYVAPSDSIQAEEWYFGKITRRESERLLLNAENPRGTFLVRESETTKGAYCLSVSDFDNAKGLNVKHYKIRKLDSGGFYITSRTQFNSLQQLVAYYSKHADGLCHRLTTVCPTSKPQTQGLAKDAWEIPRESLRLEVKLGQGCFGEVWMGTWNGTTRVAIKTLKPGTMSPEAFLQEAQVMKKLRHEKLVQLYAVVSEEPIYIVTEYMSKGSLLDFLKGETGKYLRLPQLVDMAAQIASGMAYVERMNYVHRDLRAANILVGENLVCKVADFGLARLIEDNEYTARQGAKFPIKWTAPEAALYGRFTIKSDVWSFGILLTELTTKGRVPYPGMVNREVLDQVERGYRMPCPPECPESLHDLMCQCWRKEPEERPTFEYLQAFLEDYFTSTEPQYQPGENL
CK1δ, sequence (P48730 whole entry): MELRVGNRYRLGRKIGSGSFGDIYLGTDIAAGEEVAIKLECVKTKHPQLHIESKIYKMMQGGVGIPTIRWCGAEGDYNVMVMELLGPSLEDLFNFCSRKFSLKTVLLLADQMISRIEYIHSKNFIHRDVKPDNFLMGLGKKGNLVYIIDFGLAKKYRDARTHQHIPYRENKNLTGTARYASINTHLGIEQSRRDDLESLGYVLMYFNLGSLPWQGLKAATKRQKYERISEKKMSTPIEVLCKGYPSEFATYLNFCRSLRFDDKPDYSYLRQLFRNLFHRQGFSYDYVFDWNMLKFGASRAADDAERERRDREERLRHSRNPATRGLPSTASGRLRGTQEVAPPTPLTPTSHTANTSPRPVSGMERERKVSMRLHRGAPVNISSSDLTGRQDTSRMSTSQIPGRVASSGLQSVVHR
IRAK1, sequence (P51617 whole entry): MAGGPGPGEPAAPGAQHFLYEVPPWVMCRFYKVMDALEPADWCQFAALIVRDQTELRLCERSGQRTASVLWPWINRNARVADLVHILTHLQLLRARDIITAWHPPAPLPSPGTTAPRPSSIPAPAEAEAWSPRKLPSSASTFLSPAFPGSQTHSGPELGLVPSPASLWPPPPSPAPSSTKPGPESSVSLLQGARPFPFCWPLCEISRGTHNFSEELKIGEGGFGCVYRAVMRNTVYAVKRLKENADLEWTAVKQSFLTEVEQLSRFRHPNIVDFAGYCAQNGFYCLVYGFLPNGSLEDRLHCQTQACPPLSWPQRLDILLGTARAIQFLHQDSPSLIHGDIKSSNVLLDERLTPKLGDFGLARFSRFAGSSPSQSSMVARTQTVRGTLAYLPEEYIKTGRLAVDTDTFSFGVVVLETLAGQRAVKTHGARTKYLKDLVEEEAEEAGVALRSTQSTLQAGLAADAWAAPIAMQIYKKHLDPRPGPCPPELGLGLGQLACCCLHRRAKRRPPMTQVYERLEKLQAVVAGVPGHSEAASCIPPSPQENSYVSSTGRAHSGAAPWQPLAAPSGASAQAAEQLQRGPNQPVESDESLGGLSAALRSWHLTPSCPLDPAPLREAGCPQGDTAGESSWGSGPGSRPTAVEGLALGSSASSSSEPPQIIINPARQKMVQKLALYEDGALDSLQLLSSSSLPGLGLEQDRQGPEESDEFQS

## COc1cc(O)c(CC=C(C)C)c(O)c1C(=O)/C=C/c1ccc(O)cc1 [Xanthohumol, xanthohumol]
[1]; 1 ug/ml
  Kinase activity, % of Control: 105 % of Control
[1]; 5 ug/ml
  Kinase activity, % of Control: 88 % of Control
[1]; 25 ug/ml
  Kinase activity, % of Control: 45 % of Control
[1]; 50 ug/ml
  Kinase activity, % of Control: 26 % of Control
[2]; 1 ug/ml
  Kinase activity, % of Control: 110 % of Control
[2]; 5 ug/ml
  Kinase activity, % of Control: 98 % of Control
[3]; 1 ug/ml
  Kinase activity, % of Control: 104 % of Control
[3]; 5 ug/ml
  Kinase activity, % of Control: 66 % of Control
[3]; 25 ug/ml
  Kinase activity, % of Control: 42 % of Control
[3]; 50 ug/ml
  Kinase activity, % of Control: 18 % of Control
[4]; 1 ug/ml
  Kinase activity, % of Control: 99 % of Control
[4]; 5 ug/ml
  Kinase activity, % of Control: 95 % of Control
[4]; 25 ug/ml
  Kinase activity, % of Control: 6 % of Control
[4]; 50 ug/ml
  Kinase activity, % of Control: 8 % of Control
[5]; 1 ug/ml
  Kinase activity, % of Control: 122 % of Control
[5]; 5 ug/ml
  Kinase activity, % of Control: 113 % of Control
[5]; 25 ug/ml
  Kinase activity, % of Control: 90 % of Control
[5]; 50 ug/ml
  Kinase activity, % of Control: 81 % of Control
[6]; 1 ug/ml
  Kinase activity, % of Control: 121 % of Control
[6]; 5 ug/ml
  Kinase activity, % of Control: 126 % of Control
[6]; 25 ug/ml
  Kinase activity, % of Control: 142 % of Control
[6]; 50 ug/ml
  Kinase activity, % of Control: 149 % of Control
[7]
  adipogenic / lipogenic response: comparable to indomethacin and troglitazone
[8]; 1 ug/ml
  Kinase activity, % of Control: 34 % of Control
[8]; 5 ug/ml
  Kinase activity, % of Control: 49 % of Control
[8]; 25 ug/ml
  Kinase activity, % of Control: 4 % of Control
[8]; 50 ug/ml
  Kinase activity, % of Control: 0 % of Control
[9]; 1 ug/ml
  Kinase activity, % of Control: 100 % of Control
[9]; 5 ug/ml
  Kinase activity, % of Control: 100 % of Control
[9]; 50 ug/ml
  Kinase activity, % of Control: 83 % of Control
[10]; 1 ug/ml
  Kinase activity, % of Control: 98 % of Control
[10]; 5 ug/ml
  Kinase activity, % of Control: 51 % of Control
[10]; 25 ug/ml
  Kinase activity, % of Control: 22 % of Control
[10]; 50 ug/ml
  Kinase activity, % of Control: 15 % of Control
[11]; 1 ug/ml
  Kinase activity, % of Control: 42 % of Control
[11]; 5 ug/ml
  Kinase activity, % of Control: 10 % of Control
[11]; 25 ug/ml
  Kinase activity, % of Control: 5 % of Control
[11]; 50 ug/ml
  Kinase activity, % of Control: 7 % of Control
[12]; 5 ug/ml
  Kinase activity, % of Control: 32 % of Control
[12]; 25 ug/ml
  Kinase activity, % of Control: 16 % of Control
[12]; 50 ug/ml
  Kinase activity, % of Control: 12 % of Control
[13]; 1 ug/ml
  Kinase activity, % of Control: 104 % of Control
[13]; 5 ug/ml
  Kinase activity, % of Control: 48 % of Control
[13]; 25 ug/ml
  Kinase activity, % of Control: 14 % of Control
[13]; 50 ug/ml
  Kinase activity, % of Control: 6 % of Control
[14]; 1 ug/ml
  Kinase activity, % of Control: 95 % of Control
[14]; 5 ug/ml
  Kinase activity, % of Control: 60 % of Control
[14]; 25 ug/ml
  Kinase activity, % of Control: 32 % of Control
[14]; 50 ug/ml
  Kinase activity, % of Control: 17 % of Control
[15]; 1 ug/ml
  Kinase activity, % of Control: 101 % of Control
[15]; 5 ug/ml
  Kinase activity, % of Control: 79 % of Control
[15]; 25 ug/ml
  Kinase activity, % of Control: 50 % of Control
[15]; 50 ug/ml
  Kinase activity, % of Control: 26 % of Control
[16]; 1 ug/ml
  Kinase activity, % of Control: 102 % of Control
[16]; 25 ug/ml
  Kinase activity, % of Control: 11 % of Control
[16]; 50 ug/ml
  Kinase activity, % of Control: −4 % of Control
[17]; 1 ug/ml
  Kinase activity, % of Control: 110 % of Control
[17]; 5 ug/ml
  Kinase activity, % of Control: 107 % of Control
[17]; 25 ug/ml
  Kinase activity, % of Control: 45 % of Control
[17]; 50 ug/ml
  Kinase activity, % of Control: 31 % of Control
[18]; 1 ug/ml
  Kinase activity, % of Control: 92 % of Control
[18]; 5 ug/ml
  Kinase activity, % of Control: 50 % of Control
[18]; 25 ug/ml
  Kinase activity, % of Control: 27 % of Control
[18]; 50 ug/ml
  Kinase activity, % of Control: 21 % of Control
[19]; 1 ug/ml
  Kinase activity, % of Control: 129 % of Control
[19]; 5 ug/ml
  Kinase activity, % of Control: 104 % of Control
[19]; 50 ug/ml
  Kinase activity, % of Control: 36 % of Control
[20]; 1 ug/ml
  Kinase activity, % of Control: 110 % of Control
[20]; 5 ug/ml
  Kinase activity, % of Control: 79 % of Control
[20]; 25 ug/ml
  Kinase activity, % of Control: 23 % of Control
[20]; 50 ug/ml
  Kinase activity, % of Control: 7 % of Control
[21]; 1 ug/ml
  Kinase activity, % of Control: 94 % of Control
[21]; 5 ug/ml
  Kinase activity, % of Control: 48 % of Control
[21]; 25 ug/ml
  Kinase activity, % of Control: 19 % of Control
[21]; 50 ug/ml
  Kinase activity, % of Control: 7 % of Control
[22]; 1 ug/ml
  Kinase activity, % of Control: 124 % of Control
[22]; 25 ug/ml
  Kinase activity, % of Control: 121 % of Control
[22]; 50 ug/ml
  Kinase activity, % of Control: 52 % of Control
